According to US20180077929A1, “METHODS AND SYSTEMS FOR TREATING MEDICAL DEVICES AND FLUIDS” (priority 2016, published 2018):
Marks after values point to notes of the source that are not given here.

Assay: Kinetics of removal of LPS with different agitation techniques and stearate salts
Format: biochemical
Details: for Endotoxin Detected: 5 mL SRW, baseline 1,502 EU; for Percent (%) Removed: SRW baseline 1,502 EU
Experimental: 5 mL of SRW was added to each of the tubes. Each solution was tested for endotoxin removal after agitation based on with sonication, vortexing, or test tube rolling. Sonication samples were sonicated at each indicated time interval for 30 seconds at a magnitude of 30. Vortex samples were vortexed at each indicated time interval for 30 seconds at 2500 RPM. Rolling samples were constantly rolling at 10 rpm. The samples were tested on the MCS for endotoxin at 1 minute, 20 minutes, 40 minutes, 60 minutes, and 80 minutes.

Compound | Endotoxin Detected (Rolling, 1 minute) | Percent (%) Removed (Rolling, 1 minute) [%] | Endotoxin Detected (Rolling, 20 minutes) | Percent (%) Removed (Rolling, 20 minutes) [%] | Endotoxin Detected (Rolling, 40 minutes) | Percent (%) Removed (Rolling, 40 minutes) [%] | Endotoxin Detected (Rolling, 60 minutes) | Percent (%) Removed (Rolling, 60 minutes) [%] | Endotoxin Detected (Rolling, 80 minutes) | Percent (%) Removed (Rolling, 80 minutes) [%] | Endotoxin Detected (Sonication, 1 minute) [EU] | Percent (%) Removed (Sonication, 1 minute) [%] | Endotoxin Detected (Sonication, 20 minutes) [EU] | Percent (%) Removed (Sonication, 20 minutes) [%] | Endotoxin Detected (Sonication, 40 minutes) [EU] | Percent (%) Removed (Sonication, 40 minutes) [%] | Endotoxin Detected (Sonication, 60 minutes) [EU] | Percent (%) Removed (Sonication, 60 minutes) [%] | Endotoxin Detected (Sonication, 80 minutes) [EU] | Percent (%) Removed (Sonication, 80 minutes) [%] | further results
CCCCCCCCCCCCCCCCCC(=O)[O-].[Al+3].[OH-].[OH-] [Aluminum Monostearate] | 221* EU | 85.3 | 1,260 EU | 16.1 | 1,240 EU | 17.4 | 672 EU | 55.3 | 1,220 EU | 18.8 | 626 | 58.3 | 406 | 73 | 375 | 75 | 434 | 71.1 | 291 | 80.6 | Endotoxin Detected (Vortexing, 1 minute): 817 EU; Percent (%) Removed (Vortexing, 1 minute): 45.6%; Endotoxin Detected (Vortexing, 20 minutes): 849 EU; Percent (%) Removed (Vortexing, 20 minutes): 43.5%; Endotoxin Detected (Vortexing, 40 minutes): 786 EU; Percent (%) Removed (Vortexing, 40 minutes): 47.7%; Endotoxin Detected (Vortexing, 60 minutes): 801 EU; Percent (%) Removed (Vortexing, 60 minutes): 46.7%; Endotoxin Detected (Vortexing, 80 minutes): 757 EU; Percent (%) Removed (Vortexing, 80 minutes): 49.6%
Magnesium Stearate | 1,060 EU | 29.4 | 1,120 EU | 25.4 | 1,060 EU | 29.4 | 1,120 EU | 25.4 | 1,190 EU | 20.8 | 743 | 50.5 | 716 | 52.3 | 824 | 45.1 | 884 | 41.1 | 703 | 53.2 | Endotoxin Detected (Vortexing, 1 minute): 884 EU; Percent (%) Removed (Vortexing, 1 minute): 41.1%; Endotoxin Detected (Vortexing, 20 minutes): 1,000 EU; Percent (%) Removed (Vortexing, 20 minutes): 33.4%; Endotoxin Detected (Vortexing, 40 minutes): 901 EU; Percent (%) Removed (Vortexing, 40 minutes): 40%; Endotoxin Detected (Vortexing, 60 minutes): 958 EU; Percent (%) Removed (Vortexing, 60 minutes): 36.2%; Endotoxin Detected (Vortexing, 80 minutes): 1,060 EU; Percent (%) Removed (Vortexing, 80 minutes): 29.4%
